Laboratory results taken from patent US20230085307A1, “PYRIDAZINONE COMPOUND AND HERBICIDE” (NISSAN CHEMICAL CORPORATION, priority 2019, published 2023).

Key:
late watergrass = test: Test Example 1: herbicidal activity, application before weed generation under submerged conditions (Table 16, symbol A); type: in vivo, late watergrass (Echinochloa oryzicola); conditions: amount of applied herbicide 320 g/ha
In short: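 Alluvial soil was flooded to 4 cm depth, weed seeds were sown mixed and 2.5-leaf rice seedlings were transplanted. On sowing day, the compound's emulsion, diluted in water to a set dose, was applied to the water surface. Plants grew at 25–30 °C and were scored 0–5 after three weeks.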

Japanese bulrush = test: Test Example 2: herbicidal activity, application during weed generation under submerged conditions (Table 17, symbol B); type: in vivo, Japanese bulrush (Schoenoplectus juncoides); conditions: AAH 320 g/ha; application during weed generation, submerged conditions
In short: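 3-wk visual-criteria score after one water-surface dose. Emulsion formulation, water-diluted to set rate; applied at 1–2 leaf stage; alluvial soil, 4 cm standing water; seeds co-sown; greenhouse 25–30° C.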

Chinese sprangletop = test: Test Example 3: herbicidal effect by foliage application, Wagner pot (Table 18, symbol D); type: in vivo, chinese sprangletop (Leptochloa chinensis); conditions: amount of applied herbicide 320 g/ha
In short: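 Plants were sown in alluvial soil held under 0.1–0.5 cm standing water and grown 14 days in a greenhouse at 25–30 °C. An emulsifiable formulation, water-diluted to the set dose, was then sprayed onto the foliage, and effects were scored three weeks later using previously defined criteria.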

green foxtail [1] = test: Test Example 4: herbicidal effect by soil treatment (Table 19, symbol G); type: in vivo, green foxtail (Setaria viridis); conditions: amount of applied herbicide 320 g/ha
In short: (§1)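 Step 1: sow seeds in sterilized diluvial soil, cover ~1.5 cm. Step 2: spray diluted emulsion onto soil surface at predetermined rate. Step 3: greenhouse, 25–30° C, three weeks. Step 4: grade effect on each plant by earlier criteria.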

barnyard grass = test: Test Example 4: herbicidal effect by soil treatment (Table 19, symbol H); type: in vivo, barnyard grass (Echinochloa crus-galli); conditions: amount of applied herbicide 320 g/ha
In short: as §1

wild oat [2] = test: Test Example 4: herbicidal effect by soil treatment (Table 19, symbol I); type: in vivo, wild oat (Avena fatua); conditions: amount of applied herbicide 320 g/ha
In short: as §1

Italian ryegrass = test: Test Example 4: herbicidal effect by soil treatment (Table 19, symbol K); type: in vivo, Italian ryegrass (Lolium multiflorum); conditions: amount of applied herbicide 320 g/ha
In short: as §1

windgrass [3] = test: Test Example 4: herbicidal effect by soil treatment (Table 19, symbol L); type: in vivo, windgrass (Apera spica-venti); conditions: amount of applied herbicide 320 g/ha
In short: as §1

lambsquarters [4] = test: Test Example 4: herbicidal effect by soil treatment (Table 19, symbol O); type: in vivo, lambsquarters (Chenopodium album); conditions: amount of applied herbicide 320 g/ha
In short: as §1

chickweed = test: Test Example 4: herbicidal effect by soil treatment (Table 19, symbol P); type: in vivo, common chickweed (Stellaria media); conditions: amount of applied herbicide 320 g/ha
In short: as §1

green foxtail [5] = test: Test Example 5: herbicidal effect by foliage application, plastic box (Table 20, symbol G); type: in vivo, green foxtail (Setaria viridis); conditions: foliage application, 320 g/ha, three weeks after application
In short: (§2)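 Foliar spray test: emulsion formulation diluted in water to a set application rate, sprayed onto 14-day-old plants raised in diluvial soil at 25° C to 30° C under glass. Both herbicidal effect and crop effect rated visually three weeks later.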

wild oat [6] = test: Test Example 5: herbicidal effect by foliage application, plastic box (Table 20, symbol I); type: in vivo, wild oat (Avena fatua); conditions: foliage application, 320 g/ha, three weeks after application
In short: as §2

windgrass [7] = test: Test Example 5: herbicidal effect by foliage application, plastic box (Table 20, symbol L); type: in vivo, windgrass (Apera spica-venti); conditions: foliage application, 320 g/ha, three weeks after application
In short: as §2

velvetleaf = test: Test Example 5: herbicidal effect by foliage application, plastic box (Table 20, symbol M); type: in vivo, velvetleaf (Abutilon theophrasti); conditions: foliage application, 320 g/ha, three weeks after application
In short: as §2

redroot pigweed = test: Test Example 5: herbicidal effect by foliage application, plastic box (Table 20, symbol N); type: in vivo, redroot pigweed (Amaranthus retroflexus); conditions: foliage application, 320 g/ha, three weeks after application
In short: as §2

lambsquarters [8] = test: Test Example 5: herbicidal effect by foliage application, plastic box (Table 20, symbol O); type: in vivo, lambsquarters (Chenopodium album); conditions: foliage application, 320 g/ha, three weeks after application
In short: as §2

persian speedwell = test: Test Example 5: herbicidal effect by foliage application, plastic box (Table 20, symbol R); type: in vivo, Persian speedwell (Veronica persica); conditions: foliage application, 320 g/ha, three weeks after application
In short: as §2

Compound	Herbicidal effect, A: late watergrass (late watergrass)	herbicidal effect rating, B: Japanese bulrush (Japanese bulrush)	herbicidal effect on D: Chinese sprangletop (Chinese sprangletop)	herbicidal effect, G: green foxtail (green foxtail [1])	herbicidal effect, H: barnyard grass (barnyard grass)	herbicidal effect, I: wild oat (wild oat [2])	herbicidal effect, K: Italian ryegrass (Italian ryegrass)	herbicidal effect, L: windgrass (windgrass [3])	herbicidal effect, O: lambsquarters (lambsquarters [4])	herbicidal effect, P: chickweed (chickweed)	G: green foxtail, herbicidal effect grade (green foxtail [5])	I: wild oat, herbicidal effect grade (wild oat [6])	L: windgrass, herbicidal effect grade (windgrass [7])	M: velvetleaf, herbicidal effect grade (velvetleaf)	N: redroot pigweed, herbicidal effect grade (redroot pigweed)	O: lambsquarters, herbicidal effect grade (lambsquarters [8])	R: persian speedwell, herbicidal effect grade (persian speedwell)
CCCC(=O)Oc1c(CC)nn(C)c(=O)c1-c1c(-c2ccc(C(F)(F)F)cc2)sc2ccc(F)cc12 [2-411]	3 (Herbicidal rate of 40% or more and less than 70%)	0 (Herbicidal rate of 5% or less (almost no effect))	3 (Herbicidal rate of 40% or more and less than 70%)	0 (Herbicidal rate of 5% or less (almost no effect))	0 (Herbicidal rate of 5% or less (almost no effect))	0 (Herbicidal rate of 5% or less (almost no effect))	0 (Herbicidal rate of 5% or less (almost no effect))	0 (Herbicidal rate of 5% or less (almost no effect))	0 (Herbicidal rate of 5% or less (almost no effect))	1 (Herbicidal rate of 5% or more and less than 20%)	3 (Herbicidal rate of 40% or more and less than 70%)	0 (Herbicidal rate of 5% or less (almost no effect))	0 (Herbicidal rate of 5% or less (almost no effect))	1 (Herbicidal rate of 5% or more and less than 20%)	5 (Herbicidal rate of 90% or more (almost completely withered))	4 (Herbicidal rate of 70% or more and less than 90%)	5 (Herbicidal rate of 90% or more (almost completely withered))
CCCC(=O)Oc1c(C)nn(C)c(=O)c1-c1c(-c2ccc(F)cc2)sc2cc(F)ccc12 [3-002]	5 (Herbicidal rate of 90% or more (almost completely withered))	3 (Herbicidal rate of 40% or more and less than 70%)	0 (Herbicidal rate of 5% or less (almost no effect))	0 (Herbicidal rate of 5% or less (almost no effect))	0 (Herbicidal rate of 5% or less (almost no effect))	3 (Herbicidal rate of 40% or more and less than 70%)	4 (Herbicidal rate of 70% or more and less than 90%)	3 (Herbicidal rate of 40% or more and less than 70%)	4 (Herbicidal rate of 70% or more and less than 90%)	3 (Herbicidal rate of 40% or more and less than 70%)	4 (Herbicidal rate of 70% or more and less than 90%)	4 (Herbicidal rate of 70% or more and less than 90%)	1 (Herbicidal rate of 5% or more and less than 20%)	5 (Herbicidal rate of 90% or more (almost completely withered))	5 (Herbicidal rate of 90% or more (almost completely withered))	3 (Herbicidal rate of 40% or more and less than 70%)	5 (Herbicidal rate of 90% or more (almost completely withered))
COc1ccccc1-c1sc2cc(F)ccc2c1-c1c(O)c(C)nn(C)c1=O [3-003]	3 (Herbicidal rate of 40% or more and less than 70%)	3 (Herbicidal rate of 40% or more and less than 70%)	3 (Herbicidal rate of 40% or more and less than 70%)	5 (Herbicidal rate of 90% or more (almost completely withered))	4 (Herbicidal rate of 70% or more and less than 90%)	4 (Herbicidal rate of 70% or more and less than 90%)	4 (Herbicidal rate of 70% or more and less than 90%)	3 (Herbicidal rate of 40% or more and less than 70%)	4 (Herbicidal rate of 70% or more and less than 90%)	4 (Herbicidal rate of 70% or more and less than 90%)	5 (Herbicidal rate of 90% or more (almost completely withered))	5 (Herbicidal rate of 90% or more (almost completely withered))	5 (Herbicidal rate of 90% or more (almost completely withered))	5 (Herbicidal rate of 90% or more (almost completely withered))	5 (Herbicidal rate of 90% or more (almost completely withered))	4 (Herbicidal rate of 70% or more and less than 90%)	5 (Herbicidal rate of 90% or more (almost completely withered))
CCOc1ccccc1-c1sc2cc(F)ccc2c1-c1c(O)c(C)nn(C)c1=O [3-006]	5 (Herbicidal rate of 90% or more (almost completely withered))	4 (Herbicidal rate of 70% or more and less than 90%)	4 (Herbicidal rate of 70% or more and less than 90%)	5 (Herbicidal rate of 90% or more (almost completely withered))	5 (Herbicidal rate of 90% or more (almost completely withered))	4 (Herbicidal rate of 70% or more and less than 90%)	2 (Herbicidal rate of 20% or more and less than 40%)	5 (Herbicidal rate of 90% or more (almost completely withered))	5 (Herbicidal rate of 90% or more (almost completely withered))	5 (Herbicidal rate of 90% or more (almost completely withered))	5 (Herbicidal rate of 90% or more (almost completely withered))	5 (Herbicidal rate of 90% or more (almost completely withered))	5 (Herbicidal rate of 90% or more (almost completely withered))	5 (Herbicidal rate of 90% or more (almost completely withered))	5 (Herbicidal rate of 90% or more (almost completely withered))	4 (Herbicidal rate of 70% or more and less than 90%)	5 (Herbicidal rate of 90% or more (almost completely withered))
CCCC(=O)Oc1c(C)nn(C)c(=O)c1-c1c(-c2ccc(OC)cc2)sc2cc(F)ccc12 [3-008]	5 (Herbicidal rate of 90% or more (almost completely withered))	2 (Herbicidal rate of 20% or more and less than 40%)	4 (Herbicidal rate of 70% or more and less than 90%)	0 (Herbicidal rate of 5% or less (almost no effect))	0 (Herbicidal rate of 5% or less (almost no effect))	0 (Herbicidal rate of 5% or less (almost no effect))	0 (Herbicidal rate of 5% or less (almost no effect))	0 (Herbicidal rate of 5% or less (almost no effect))	5 (Herbicidal rate of 90% or more (almost completely withered))	5 (Herbicidal rate of 90% or more (almost completely withered))	3 (Herbicidal rate of 40% or more and less than 70%)	0 (Herbicidal rate of 5% or less (almost no effect))	3 (Herbicidal rate of 40% or more and less than 70%)	5 (Herbicidal rate of 90% or more (almost completely withered))	5 (Herbicidal rate of 90% or more (almost completely withered))	5 (Herbicidal rate of 90% or more (almost completely withered))	5 (Herbicidal rate of 90% or more (almost completely withered))
